We go through six molecules from paper PMC6882823, “Partitioning of amino acids and proteins into decanol using phase transfer agents towards understanding life in non-polar liquids” (Scientific Reports, 2019).

A short description of data set [1]: Water/decanol phase partitioning with or without phase transfer agents. The format is physicochemical. Here is the method: Biomolecules were dissolved in ultrapure water (Millipore EMD, USA), containing decylsulfate and/or DDAB when noted. […] Final concentrations of phase transfer agents (PTAs) and amino acids were generally 10 mM unless noted otherwise for specific experiments. Proteins were generally diluted until their 280 nm absorbance was less than or equal to 1 AU.
(§1) Equal volumes of water phase (containing the biomolecule and PTA, if added) and decanol were mixed, vortexed for 30 s, then centrifuged for 3 minutes with a mini centrifuge. These samples were prepared in triplicate. Both decanol and aqueous phase were analyzed for biomolecules. Phenylalanine and proteins were analyzed using UV-vis (Hewlett-Packard 8453).
(§2) HPLC was performed with Cosmosil HILiC column (2.5 µm particle size, 3 × 100 mm; Nacalai USA) at 30 °C with a 1.0 mL/min flow rate, and isocratic elution of 25% 20 mM ammonium acetate, pH 7.5 and 75% acetonitrile (Optima, LC-MS purity, Fisher Scientific). Injection volume was 10 µL. For mass spectra collection, HESI heater temp was 50 °C, with a 4.5 kV spray, and 250 °C capillary temperature in positive ion mode.

A short description of data set [2]: Potassium ion binding of valinomycin in the decanol phase. To be noted: decanol phase after partitioning against 100 mM KCl. Here is the method: Ultra-pure Millipore grade (18.2 MΩ) water, 100 mM KCl or 100 mM AuCl were tested as aqueous phases. In all samples all of the valinomycin was found in the decanol phase (see SI for additional details).
as §1, §2

On the set-up of data set [3]: method as in PMID 7108955. As to conditions: amino acid residue; positive scores = higher hydrophobicity; cited from earlier work.

For the molecule valinomycin [reference compound], the “valinomycin found in the decanol phase” value in data set [1] (water/decanol, without PTAs, aqueous phase ultra-pure water, 100 mM KCl or 100 mM AuCl, LC-MS and UV 210 nm, three independent partitionings) is on record as “all”. For the same molecule, the “ability to bind potassium ions” value in data set [2] was “appeared to retain its biological ability to bind to potassium ions”.

For the molecule “Tpol: Taq DNA polymerase, UniProt P19821”, in data set [1] (water/decanol, no PTA or 5 mM of both DDAB and DS, UV-vis), the “Tpol entering the decanol phase” value was “About 10%”.

As to `N[C@@H](Cc1ccccc1)C(=O)O` [phenylalanine, Phenylalanine], the “phenylalanine partitioning into decanol, 1:1 PTA to phenylalanine, pH 7” value in data set [1] (water/decanol, 10 mM phenylalanine, 1:1 ratio of PTA (DS and DDAB 1:1), pH 7 zwitterionic, UV-vis, n = 3) stood at 15%. Also, in data set [1] (water/decanol, 10 mM phenylalanine, 1:10 ratio of PTA, all pHs (1.5 DS; 7.0 DS and DDAB; 10.0 DDAB), UV-vis, n = 3), the “phenylalanine entering the decanol phase, 1:10 PTA to phenylalanine” value is “about 10%”. For the same molecule, the “Hydrophathy (hydropathy score of residue type)” value (“Hydrophathy” for short) in data set [3] is reported as 2.8.

In the case of `N[C@@H](CCC(=O)O)C(=O)O` [glutamic acid], the “Hydrophathy” value in data set [3] is on record as −3.5.

Regarding `NCC(=O)O` [glycine, Glycine], the “Hydrophathy” value in data set [3] was −0.4.

B1: Bacteriorhodopsin: a membrane protein, soluble only in amphiphilic systems (protein, UniProt P02945 14-262, looked up)
Bacteriorhodopsin: QAQITGRPEWIWLALGTALMGLGTLYFLVKGMGVSDPDAKKFYAITTLVPAIAFTMYLSMLLGYGLTMVPFGGEQNPIYWARYADWLFTTPLLLLDLALLVDADQGTILALVGADGIMIGTGLVGALTKVYSYRFVWWAISTAAMLYILYVLFFGFTSKAESMRPEVASTFKVLRNVTVVLWSAYPVVWLIGSEGAGIVPLNIETLLFMVLDVSAKVGFGLILLRSRAIFGEAEAPEPSAGDGAAATSD
Consider B1, for which the “behaviour of bacteriorhodopsin in partitioning experiments” value in data set [1] (water/decanol with DS and DDAB added, visual) is “aggregated at the interface between the water and oil phase”. Besides, the “solubility in water and decanol phases” value in data set [1] (without PTAs, appearing as crystals) is “insoluble in both the water and decanol phases”.
